In US8828696B2, “Use of Penicillin G Procaine as a selective antimicrobial agent in the production of alcohol by fermentation” (Lallemand Specialites, Inc, priority 2008, dated 2014):
“And” between values parts separate entries of the source, which are not always exact repeats. Identical values can stand only once.

Assays:
[1] = test system: Lactobacillus fermentum; test: Comparative efficacy analysis Virginiamycin vs. Penicillin G Procaine, growth in MRS broth, 24 well plate; assay type: cell-based
Excerpt: The most commonly found microorganism in fuel ethanol producing plants is the Lactobacillus fermentum bacterium and is considered as an “industry normal” bacterium. This example compares the use of a Bactenix® line of products, Penicillin G Procaine-antibiotic versus Virginiamycin-antibiotic to control “industry normal” Lactobacillus fermentum bacterium. This trial uses an alcohol water mixture to assure total dissolving of antibiotics. This assures that the correct concentrations of antibiotics are going into the test wells and thereby preventing under dosing during the trial. All bacteria tested were industry specific isolates that were obtained from actual corn mash samples from fermentation alcohol production plants. The trial was set up as follows: • 1. Dissolve 0.1 g of each of the antibiotics in 1 ml water and then add 5 ml of ethanol, vortex and bring up to 10 ml with sterile water to from a suspension. • 2. Dilute the previous suspension 1:10 with sterile water. This gives a one mg/ml concentration. • 3. Filter the suspension by running through a 0.2 μm syringe filter. • 4. Add four μl broth in a centrifuge then add antibiotics to MRS (DeMan, Rogosa and Sharpe) broth at the concentrations required for the test. • 5. Take four μl of a fresh 24-hour culture of the target organisms and add to the corresponding empty wells in a pre-labeled 24 well tissue culture plate. • 6. Pipette one ml of the appropriate antibiotic media to each well of the plate. • 7. Incubate at 33° C. for 24 hours. • 8. Read plates for bacterial growth and re-incubate the plates at 33° C. • 9. After 48 hours read and report the final results.

[2] = test system: contaminating bacteria; test: Alcohol production plant trial, fermentor drop data (50 m/g/y dry grind, corn); assay type: cell-based; conditions: 0.5 ppm
Method: This trial was conducted at a 50 million gallon per year (m/g/y) dry grind fuel alcohol production facility utilizing corn as a fermentation substrate. Batch yeast propagation and fermentation process were utilized. Antimicrobials were added to the fermentor during the fill cycle at approximately 30% fill.
No other changes were made to the process or chemical additions that would influence the fermentation kinetics monitored during 3 sets of fermentor batches listed below. The fermentation data was accumulated at the end (drop) of the fermentation process for each of the fermentors. Fermentation kinetics was measured for three batch cycles including:
Set 1—“Pre Penicillin G Procaine trial”-10 fermentor batches using a level of 0.5 ppm Virginiamycin. See results in Table 2.
Set 2—“Penicillin G Procaine trial”-10 fermentor batches using a level of 0.5 ppm of Penicillin G Procaine. See results in Table 3.
Set 3—“Post Penicillin G Procaine trial”-10 fermentor batches using a level of 0.5 ppm of Virginiamycin. See results in Table 4.

[3] = Set 1 'Pre Penicillin G Procaine trial', 10 Batch average
[4] = Set 1 'Pre Penicillin G Procaine trial', drop data, single fermentor batch
[5] = Set 3 'Post Penicillin G Procaine trial', 10 Batch average
[6] = Set 3 'Post Penicillin G Procaine trial', drop data, single fermentor batch

Virginiamycin
inhibition of growth of the 'industry normal' bacteria ([1]; at 0.5 ppm, as per table 1): did not seem to inhibit the growth | effectiveness against Lactobacillus fermentum ([1]; dosage of above 1 ppm, compared with Penicillin G Procaine): comparable effectiveness as Penicillin G Procaine | concentration from which effective against Lactobacillus fermentum ([1]; industry standard L. fermentum isolate, MRS broth, 33° C., read at 24 and 48 hours): > 0.5 ppm | Acetic % [2, 3]: 0.04% | EtOH v/v % [2, 3]: 15.48 v/v % | Glucose % [2, 3]: 0.29% | Lactic % [2, 3]: 0.64% | Acetic % [2, 4]: 0.02% and 0.04% and 0.13% and 0.03% | Glucose % [2, 4]: 0.36% and 0.27% and 0.26% and 0.31% and 0.29% and 0.3% and 0.16% | Lactic % [2, 4]: 0.59% and 0.71% and 0.85% and 0.56% and 0.79% and 0.584% and 0.41% | Acetic % [2, 5]: 0.04% | EtOH v/v % [2, 5]: 15.49 v/v % | Glucose % [2, 5]: 0.30% | Lactic % [2, 5]: 0.57% | Acetic % [2, 6]: 0.05% and 0.04% and 0.03% | Glucose % [2, 6]: 0.26% and 0.35% and 0.29% and 0.32% and 0.30% and 0.33% and 0.25%
